Assay results: US6242428A, “Nucleoside analogs and uses in treating Plasmodium falciparum infection” (Unisearch Limited, priority 1998, dated 2001)
“Also recorded” adds a separate entry of the source. Read-outs that look alike come from different tables or passages of the source.

How the values were obtained:
[1] = tested on: normal erythrocytes and other cell types; settings: cited from earlier work
[2] = tested on: erythrocyte infected with P. falciparum; settings: cited from earlier work
P. falciparum = assay: In vitro toxicity against P. falciparum in culture (radiolabelled hypoxanthine incorporation / lactate dehydrogenase assay); format: cell-based, Plasmodium falciparum, FCQ27; settings: for toxicity against P. falciparum, in words: statement in the transport and metabolism study
Method: P. falciparum, FCQ27, was maintained in culture using the techniques described by Trager & Jensen (W. Traqer and J. B. Jensen, Science, 193 673-675 (1976)). Cultures containing 2% hematocrit suspensions of parasitized human type O^+ erythrocytes in RPMI 1640 medium, supplemented with 25 mM HEPES-KOH, pH 7.2, 25 mM NaHCO3 and 10% human type O^+ serum (v/v) are maintained in modular incubator chambers at 37° C. in a gas mixture of 5% O2, 5% CO2 and 90% N2. The isolate of P. falciparum used in these experiments was FCQ27, routinely maintained in synchronized or asynchronous in vitro cultures at low hematocrit.
The potential toxicity of nucleoside analogues against P. falciparum in culture was tested in microtitre plates over the range of drug concentrations for 24 hours. The procedures for monitoring parasite viability is well established (A. M. Gero, H. V. Scott, W. J. O'Sullivan and R. I. Christopherson, Mol. Biochem. Parasitol. 34, 87-89 (1989)) and is based on radiolabelled hypoxanthine or isoleucine incorporation. The incorporation of [G-^3 H]hypoxanthine into the nucleic acids of P. falciparum was used to assess the viability of the parasite in vitro. Microculture plates were prepared with each well containing 225 μl of a 2% hematocrit culture of asynchronous parasited erythrocytes (1% parasitized cells). Each plate, containing varying concentrations of the drug to be studied (up to 200 μM final concentration for initial screen), was incubated for 24 h at 37° C. in a gas mixture of 5% O2, 5% CO2 and 90% N2, at which point [G-^3 H] hypoxanthine was added to each well and the incubation continued under identical conditions for a further 18-20 h. The control infected cells (i.e. without drug), routinely reached a parasitemia of 6-8% before harvesting. Expediency was aided by 96-well plate counter using lactate dehydrogenase for the drug susceptibility assay (L. K. Basco, F. Marguet, M. T. Makler and J. Lebbras, Exp. Parasitol. 80, 260-271 (1995); M. T. Makler and D. J. Hinrichs; Am. J. Trop. Med. Hyg. 48, 205-210 (1993)). This assay gave the identical results to the hypoxanthine technique. In addition, for each experiment, microscopic counting of Giemsa stained thin slides was used as a control.
The biological screen involved evaluation of the compounds against the protozoan P. falciparum in in vitro culture. The range of drug concentrations was used independently by two assays. One, radiolabelled hypoxanthine incorporation into the nucleic acid of P. falciparum, and the other, more expedient assay, a 96-well plate susceptibility assay using lactate dehydrogenase. Both assays gave identical results. In addition, microscopic counting of Giemsa stained thin slides was used as a control. Examples of experimental curves are attached as Appendix 2. The biological tests were done at several concentrations. The highest concentration was 200 μM, the compounds were considered active at concentrations less than 40 μM.

[3] = tested on: P. falciparum infected erythrocytes (trophozoites); format: in vitro ADME, human erythrocytes infected with Plasmodium falciparum
Method: (§1) The metabolism of the L-nucleoside conjugates was studied by HPLC analysis. The primary aim was to determine their ability to be catabolized by parasite purine salvage enzymes. Some effect on the purine metabolic pools was also observed.
(§2) For each HPLC determination 200 μL of packed cells of 80-90% trophozoite infected cells were used. These were isolated from in vitro cultures by synchronization of the parasites in in vitro cultures using sterile D-sorbitol (L. Lambros and J. P. Vanderberg, Parasitol. 65, 418-420 (1979)) followed by separation of the trophozoites from non infected erythrocytes by Percoll gradients as described previously (A. M. Gero, H. V. Scott, W. J. O'Sullivan and R. I. Christopherson, Mol. Biochem. Parasitol. 34, 87-89 (1989)). Trophozoites were incubated at 37° C. for 2 hours with each compound to be tested. Compounds were incubated with both whole infected cells as whole and lyzed uninfected normal erythrocytes to determine:
a) entry to the cell (whether they were transported);
Drug incubation was terminated by centrifugation through silicon oil using the method of Upston and Gero (J. M. Upston and A. M. Gero, Biochem. Biophys. Acta. 1236, 249-258 (1995)). This procedure separated intact trophozoites from extracellular non-transported drug solution.
(§3) The metabolism of nucleosides with potential chemotherapeutic activity was assessed by the analysis of cytoplasmic samples by reverse phase ion-pair high performance liquid chromatography (R. S. Toguzov, Y. V. Tikhonov, A. M. Pimenov, V. Prokudin, Journal of Chromatography, I. Biomedical Appl. 434, 447-453 (1988)). Nucleotides, nucleosides and bases were separated by this HPLC method.
It has been established that transport and uptake in parasite invaded cells is different from that of normal blood erythrocytes (A. M. Gero & A. M. Wood, In: Pyrine & Pyrimidine Methabolism in Man VII, Part A. (R. A. Harkness et al., Eds) Plenum Press, NY, 169-172 (1991)). Invasion by the malaria parasite comprises the cell membrane, allowing penetration of unnatural substances of various size and shape, whereas normal cells are very selective in uptake. It was shown that L-nucleosides and their derivatives easily penetrate invaded cells, while they have a very slow rate of uptake into normal cells, if they enter at all. In order to obtain preliminary data on transport, uptake and metabolism, the HPLC method was used to analyze the following 10 Lipitek compounds: L-101, L-103, L-109, L-111, L-117, L-133, L-138, GCl 1007, GCl 1027, GCl 1069.
(§4) These compounds were chosen for the identification of possible metabolites. In this experiment the compounds were incubated with both whole infected cells, and with whole and lysed uninfected cells, followed by the separation of unreacted compound and HPLC analysis.

[4] = tested on: P. falciparum infected erythrocytes (trophozoites); format: in vitro ADME, human erythrocytes infected with Plasmodium falciparum; remark: listed apart in the source
Method: as §1, §2
b) the metabolic effect within the cell (was the compound metabolized);
as §3, §4

[5] = tested on: P. falciparum strain W2 (chloroquin resistant); assay: U.S. Army Antimalarial Test Program in vitro screen, strain W2; format: cell-based, Plasmodium falciparum; settings: 15 dimers, D6 and W2 stated together
From the text: (§5) Fifteen L-nucleoside dimers (L-101, L-103, L-103A, L-107, L-110, L-111, L-112, L-114, L-117, L-120, L-122, L-124, L-125, L-133 & L-138) from Lipitek's library were submitted for in vitro screen to the U.S. Army Antimalarial Test Program (for the structures of the compounds, see FIG. 7). The compounds have been tested for their activity against two P. falciparum strains: D6 (chloroquin non-resistant) and W2 (chloroquin resistant).

[6] = tested on: P. falciparum strain D6 (chloroquin non-resistant); assay: U.S. Army Antimalarial Test Program in vitro screen, strain D6; format: cell-based, Plasmodium falciparum; settings: 15 dimers, D6 and W2 stated together
From the text: as §5

[7] = tested on: human prostate phosphotransferase; settings: cited from earlier work
[8] = Solubility remark in the in vitro testing; settings: Tables 1 and 6
[9] = Plasmodium falciparum, 24 h, Table 1, 24 h drug exposure, up to 200 μM, read-out: IC50
[10] = Plasmodium falciparum, Table 2, FUdR linkage position 5', read-out: IC50
[11] = Plasmodium falciparum, Table 4, Phosphate "bridge" O=P--O, read-out: IC50
[12] = Plasmodium falciparum, Table 3, α-L configuration of the L-nucleoside, read-out: IC50
[13] = Plasmodium falciparum, Table 3, β-L configuration of the L-nucleoside, read-out: IC50

Compound | entry to the infected cell [3] | In vitro activity against P. falciparum, in words (P. falciparum) | IC50 (P. falciparum; [9]) | IC50 (P. falciparum; [10]) | IC50 (P. falciparum; [11]) | toxicity against P. falciparum, in words (P. falciparum) | activity ranking in words, strain W2 [5] | activity ranking in words, strain D6 [6] | other results
Nc1ncnc2c1ncn2[C@H]1O[C@@H](CO)[C@H](O)[C@@H]1O [GCI 1032, β-L-adenosine] | – | – | – | – | – | – | – | – | permeability/uptake of normal erythrocytes and other cells [1]: completely impermeable; transport into infected erythrocyte [2]: selectively transported into an erythrocyte infected with P. falciparum; IC50 (P. falciparum; Plasmodium falciparum, 24 h): > 200 µM
O=c1[nH]c(=O)n([C@H]2C[C@H](OP(=O)(O)OC[C@H]3O[C@@H](n4cc(F)c(=O)[nH]c4=O)C[C@@H]3O)[C@@H](CO)O2)cc1F [L-101, [β-D]2 -FUdR] | entered the infected cells | most active | 15 µM | 15 µM | 15 µM | toxic against P. falciparum | most active | most active | metabolism by the infected cells [4]: metabolized by the infected cells
O=c1[nH]c(=O)n([C@H]2C[C@@H](OP(=O)(O)OC[C@H]3O[C@@H](n4cc(F)c(=O)[nH]c4=O)C[C@@H]3O)[C@H](CO)O2)cc1F [L-103] | entered the infected cells | – | 20 µM | 20 µM | 20 µM | toxic against P. falciparum | – | – | IC50 (P. falciparum; [12]): 20 µM
O=c1[nH]c(=O)n([C@@H]2C[C@@H](O)[C@H](COP(=O)(O)O[C@@H]3C[C@@H](n4cc(F)c(=O)[nH]c4=O)O[C@H]3CO)O2)cc1F [L-109, 3'-O-(β-L-5-fluoro-2'-deoxyuridinyl)-β-L-5-fluoro-2'-deoxyuridine] | could not enter the infected cell | did not exhibit any activity | > 200 µM | – | – | not toxic | – | – | –
O=c1[nH]c(=O)n([C@@H]2C[C@@H](OP(=O)(O)OC[C@H]3O[C@@H](n4cc(F)c(=O)[nH]c4=O)C[C@@H]3O)[C@H](CO)O2)cc1F [L-110, 3'-O-(β-D-5-fluoro-2'-deoxyuridinyl)-β-L-5-fluoro-2'-deoxyuridine] | – | – | 20 µM | 20 µM | – | – | most active | most active | IC50 (P. falciparum; [13]): 20 µM
Nc1ccn([C@H]2C[C@@H](OP(=O)(O)OC[C@H]3O[C@@H](n4cc(F)c(=O)[nH]c4=O)C[C@@H]3O)[C@H](CO)O2)c(=O)n1 [L-111, 3'-O-(β-D-5-fluoro-2'-deoxyuridinyl)-α-L-2'-deoxycytidine] | entered the infected cells | most active; also recorded: no obvious difference in the activity | 38 µM | 38 µM | – | toxic against P. falciparum | – | – | IC50 (P. falciparum; [12]): 38 µM
O=c1ccn([C@@H]2C[C@@H](OP(=O)(O)OC[C@H]3O[C@@H](n4cc(F)c(=O)[nH]c4=O)C[C@@H]3O)[C@H](CO)O2)c(=O)[nH]1 [L-117] | entered the infected cells | – | 35 µM | – | 35 µM | toxic against P. falciparum | most active | most active | –
Nc1ncnc2c1ncn2[C@@H]1C[C@@H](OP(=O)(O)OC[C@H]2O[C@@H](n3cc(F)c(=O)[nH]c3=O)C[C@@H]2O)[C@H](CO)O1 [L-138, β-L-dA, β-D-FUdR] | entered the infected cells | most active | 5 µM | 5 µM | 5 µM | toxic against P. falciparum | most active | most active | metabolism by the infected cells [4]: metabolized by the infected cells; IC50 (P. falciparum; [13]): 5 µM; IC50 (P. falciparum; Plasmodium falciparum, Table 4, Phosphorothioate "bridge" S=P--O, read-out: IC50): 100 µM
O=c1ccn([C@H]2O[C@@H](CO)[C@H](O)[C@@H]2O)c(=O)[nH]1 [β-L-uridine] | – | – | – | – | – | – | – | – | phosphorylation at the 5'-position [7]: not phosphorylated at the 5'-position
α-L-FUdR 3'-5'SATE [B07] | – | – | – | – | – | – | – | – | Solubility (printed in the IC50/ID50 column) [8]: Solubility problem
β-L-FUdR 3'-5'SATE [B05] | – | – | – | – | – | – | – | – | Solubility (printed in the IC50/ID50 column) [8]: Solubility problem
β-L-dG, β-D-FUdR [L-133] | entered the infected cells | most active | – | – | – | toxic against P. falciparum | most active | most active | metabolism by the infected cells [4]: metabolized by the infected cells; IC50 (P. falciparum; Table 1, 24 h drug exposure, up to 200 μM, read-out: IC50): 14 µM; IC50 (P. falciparum; Table 2, FUdR linkage position 5', read-out: IC50): 14 µM
